Where “and” joins values, the source holds several entries; their conditions need not be identical. Equal entries are not always repeated. Inconclusive results and toxic doses are left out.
Test system: BDF1 mice, P388 leukemia ip, median survival T/C
Assay: NCI In Vivo Anticancer Drug Screen. Data for tumor model P388 Leukemia (intraperitoneal) in B6D2F1 (BDF1) mice
Conditions: endpoint: median survival time, higher = longer survival
Procedure, shortened: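 In tumour-bearing mice, survival after compound treatment is set against the vehicle group and given as a quotient.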

[1] = dose: 50.0 mg/kg/injection, schedule: Q04DX003 (ip), vehicle: saline with Tween-80
[2] = dose: 100.0 mg/kg/injection, schedule: Q04DX003 (ip), vehicle: saline with Tween-80
[3] = dose: 200.0 mg/kg/injection, schedule: Q04DX003 (ip), vehicle: saline with Tween-80
[4] = dose: 100.0 mg/kg/injection, schedule: Q01DX009 (ip), vehicle: Klucel (hydroxypropylcellulose) (HPC)
[5] = dose: 200.0 mg/kg/injection, schedule: Q01DX009 (ip), vehicle: Klucel (hydroxypropylcellulose) (HPC)
[6] = dose: 50.0 mg/kg/injection, schedule: Q01DX009 (ip), vehicle: saline with Tween-80
[7] = dose: 100.0 mg/kg/injection, schedule: Q01DX009 (ip), vehicle: saline with Tween-80
[8] = dose: 200.0 mg/kg/injection, schedule: Q01DX009 (ip), vehicle: saline with Tween-80

## CN(Cc1cnc2nc(N)nc(N)c2n1)c1ccc(C(=O)N[C@@H](CCC(=O)O)C(=O)O)cc1
dose: 0.37 mg/kg/injection, schedule: Q01DX009 (ip), vehicle: sodium bicarbonate
  T/C: 172 % of control
dose: 0.38 mg/kg/injection, schedule: Q01DX009 (ip), vehicle: saline
  T/C: 150 % of control and 155 % of control
dose: 0.5 mg/kg/injection, schedule: Q01DX005 (ip), vehicle: saline with Tween-80
  T/C: 113 % of control
dose: 0.5 mg/kg/injection, schedule: Q01DX005 (ip), vehicle: saline
  T/C: 184 % of control
dose: 0.5 mg/kg/injection, schedule: Q01DX009 (ip), vehicle: saline with Tween-80
  T/C: 163 % of control
dose: 0.5 mg/kg/injection, schedule: Q01DX009 (ip), vehicle: sodium bicarbonate
  T/C: 176 % of control
dose: 0.5 mg/kg/injection, schedule: Q01DX010 (ip), vehicle: other
  T/C: 245 % of control
dose: 0.75 mg/kg/injection, schedule: Q01DX009 (ip), vehicle: saline
  T/C: 190 % of control and 195 % of control
dose: 0.75 mg/kg/injection, schedule: Q01DX009 (ip), vehicle: sodium bicarbonate
  T/C: 209 % of control
dose: 0.9 mg/kg/injection, schedule: Q01DX009 (ip), vehicle: sodium bicarbonate
  T/C: 171 % of control and 190 % of control and 203 % of control
dose: 1.0 mg/kg/injection, schedule: Q01DX005 (ip), vehicle: saline with Tween-80
  T/C: 104 % of control
dose: 1.0 mg/kg/injection, schedule: Q01DX005 (ip), vehicle: saline
  T/C: 194 % of control
dose: 1.0 mg/kg/injection, schedule: Q01DX009 (ip), vehicle: saline with Tween-80
  T/C: 181 % of control
dose: 1.0 mg/kg/injection, schedule: Q01DX009 (ip), vehicle: sodium bicarbonate
  T/C: 236 % of control and 150 % of control and 181 % of control
dose: 1.0 mg/kg/injection, schedule: Q01DX010 (ip), vehicle: other
  T/C: 300 % of control
dose: 1.3 mg/kg/injection, schedule: Q01DX009 (ip), vehicle: sodium bicarbonate
  T/C: 228 % of control and 179 % of control and 205 % of control
dose: 1.5 mg/kg/injection, schedule: Q01DX009 (ip), vehicle: saline
  T/C: 229 % of control and 222 % of control
dose: 2.0 mg/kg/injection, schedule: Q01DX009 (ip), vehicle: saline with Tween-80
  T/C: 222 % of control
dose: 2.25 mg/kg/injection, schedule: Q01DX009 (ip), vehicle: sodium bicarbonate
  T/C: 231 % of control
dose: 2.3 mg/kg/injection, schedule: Q01DX009 (ip), vehicle: sodium bicarbonate
  T/C: 227 % of control and 239 % of control and 263 % of control
dose: 3.0 mg/kg/injection, schedule: Q01DX009 (ip), vehicle: saline
  T/C: 231 % of control and 236 % of control
dose: 3.0 mg/kg/injection, schedule: Q01DX009 (ip), vehicle: sodium bicarbonate
  T/C: 95 % of control and 100 % of control
dose: 3.5 mg/kg/injection, schedule: Q01DX009 (ip), vehicle: sodium bicarbonate
  T/C: 241 % of control and 244 % of control and 104 % of control
dose: 8.64 mg/kg/injection, schedule: Q04DX003 (ip), vehicle: sodium bicarbonate
  T/C: 182 % of control
dose: 10.0 mg/kg/injection, schedule: Q04DX004 (ip), vehicle: sodium bicarbonate
  T/C: 243 % of control
dose: 14.4 mg/kg/injection, schedule: Q04DX003 (ip), vehicle: sodium bicarbonate
  T/C: 199 % of control
dose: 15.0 mg/kg/injection, schedule: Q04DX004 (ip), vehicle: sodium bicarbonate
  T/C: 250 % of control
dose: 20.0 mg/kg/injection, schedule: Q04DX003 (ip), vehicle: sodium bicarbonate
  T/C: 221 % of control
dose: 20.0 mg/kg/injection, schedule: Q04DX004 (ip), vehicle: sodium bicarbonate
  T/C: 248 % of control
dose: 24.0 mg/kg/injection, schedule: Q04DX003 (ip), vehicle: sodium bicarbonate
  T/C: 202 % of control
dose: 25.0 mg/kg/injection, schedule: Q04DX003 (ip), vehicle: sodium bicarbonate
  T/C: 292 % of control
dose: 25.0 mg/kg/injection, schedule: Q04DX004 (ip), vehicle: sodium bicarbonate
  T/C: 248 % of control
dose: 30.0 mg/kg/injection, schedule: Q04DX003 (ip), vehicle: sodium bicarbonate
  T/C: 238 % of control
dose: 40.0 mg/kg/injection, schedule: Q04DX003 (ip), vehicle: sodium bicarbonate
  T/C: 237 % of control

## Cc1nc2c(=O)n(C)c(=O)n(C)c2n1C
[1]
  T/C: 100 % of control
[2]
  T/C: 90 % of control
[3]
  T/C: 100 % of control

## O=C(CCCC(O)(C1CC1)C1CC1)C1CC1
[4]
  T/C: 100 % of control
[5]
  T/C: 115 % of control

## CCOC(=O)c1c[nH]c2c(OC)cccc2c1=O
dose: 25.0 mg/kg/injection, schedule: Q01DX009 (ip), vehicle: saline with Tween-80
  T/C: 93 % of control
[6]
  T/C: 109 % of control
[7]
  T/C: 109 % of control
[2]
  T/C: 99 % of control
[8]
  T/C: 109 % of control
[3]
  T/C: 98 % of control
dose: 300.0 mg/kg/injection, schedule: Q01DX009 (ip), vehicle: saline with Tween-80
  T/C: 90 % of control

## N#CC1(c2ccc(Cl)cc2)CC1
[4]
  T/C: 95 % of control
dose: 100.0 mg/kg/injection, schedule: Q04DX003 (ip), vehicle: Klucel (hydroxypropylcellulose) (HPC)
  T/C: 92 % of control
[5]
  T/C: 100 % of control
dose: 200.0 mg/kg/injection, schedule: Q04DX003 (ip), vehicle: Klucel (hydroxypropylcellulose) (HPC)
  T/C: 100 % of control

## Br[CH2][Sn]([Br])([Br])[CH2]Br
dose: 3.12 mg/kg/injection, schedule: Q01DX009 (ip), vehicle: saline with Tween-80
  T/C: 111 % of control
dose: 6.25 mg/kg/injection, schedule: Q01DX009 (ip), vehicle: saline with Tween-80
  T/C: 98 % of control
dose: 12.5 mg/kg/injection, schedule: Q01DX009 (ip), vehicle: saline with Tween-80
  T/C: 115 % of control

## COC1/C=C\OC2(C)Oc3c(C)c(O)c4c(c3C2=O)C(=O)C=C(NC(=O)C(C)=C/C=C\C(C)C(O)C(C)C2OC(C)(C)OC(C1C)C2C)C4=O (stereo not given)
[6]
  T/C: 103 % of control
[7]
  T/C: 100 % of control
[8]
  T/C: 93 % of control

## O=C(Cl)C1C2CC1C(Cl)C2Cl (stereo not given)
[6]
  T/C: 103 % of control
[7]
  T/C: 108 % of control
[8]
  T/C: 107 % of control

## CC(C)(C)NC(=S)Nc1ccc2c(c1)nc(-c1ccccc1)c1cc(NC(=S)NC(C)(C)C)ccc12
[2]
  T/C: 111 % of control
[3]
  T/C: 100 % of control

## CCOC(=O)C(N)CSC(c1ccccc1)(c1ccccc1)c1ccccc1 (stereo not given)
dose: 9.6 mg/kg/injection, schedule: Q04DX003 (ip), vehicle: saline
  T/C: 95 % of control
dose: 14.0 mg/kg/injection, schedule: Q04DX003 (ip), vehicle: saline
  T/C: 100 % of control
dose: 33.0 mg/kg/injection, schedule: Q04DX003 (ip), vehicle: saline
  T/C: 122 % of control
dose: 50.0 mg/kg/injection, schedule: Q04DX003 (ip), vehicle: saline
  T/C: 155 % of control
dose: 100.0 mg/kg/injection, schedule: Q04DX003 (ip), vehicle: saline
  T/C: 175 % of control
dose: 132.0 mg/kg/injection, schedule: Q04DX003 (ip), vehicle: saline
  T/C: 181 % of control
dose: 200.0 mg/kg/injection, schedule: Q04DX003 (ip), vehicle: saline
  T/C: 181 % of control and 215 % of control
dose: 300.0 mg/kg/injection, schedule: Q04DX003 (ip), vehicle: saline
  T/C: 163 % of control

## O=C1C=Cc2cccc3cccc1c23
dose: 50.0 mg/kg/injection, schedule: Q04DX003 (ip), vehicle: saline sonified
  T/C: 95 % of control
dose: 100.0 mg/kg/injection, schedule: Q04DX003 (ip), vehicle: saline sonified
  T/C: 95 % of control
dose: 200.0 mg/kg/injection, schedule: Q04DX003 (ip), vehicle: saline sonified
  T/C: 91 % of control

## CN1C(=O)NC(C)(c2cccs2)C1=O (stereo not given)
[1]
  T/C: 96 % of control
[2]
  T/C: 101 % of control
[3]
  T/C: 100 % of control
dose: 400.0 mg/kg/injection, schedule: Q04DX003 (ip), vehicle: saline with Tween-80
  T/C: 94 % of control

## COc1ccc(C2c3cc4c(c(OC)c3CC(CO)C2C(=O)O)OCO4)cc1OC (stereo not given)
dose: 9.38 mg/kg/injection, schedule: Q01DX010 (ip), vehicle: water
  T/C: 95 % of control
dose: 18.75 mg/kg/injection, schedule: Q01DX010 (ip), vehicle: water
  T/C: 90 % of control
dose: 37.5 mg/kg/injection, schedule: Q01DX010 (ip), vehicle: water
  T/C: 90 % of control
dose: 50.0 mg/kg/injection, schedule: Q01DX001 (ip), vehicle: water
  T/C: 110 % of control
dose: 75.0 mg/kg/injection, schedule: Q01DX010 (ip), vehicle: water
  T/C: 110 % of control
dose: 100.0 mg/kg/injection, schedule: Q01DX001 (ip), vehicle: water
  T/C: 100 % of control
dose: 150.0 mg/kg/injection, schedule: Q01DX010 (ip), vehicle: water
  T/C: 115 % of control
dose: 200.0 mg/kg/injection, schedule: Q01DX001 (ip), vehicle: water
  T/C: 110 % of control
dose: 400.0 mg/kg/injection, schedule: Q01DX001 (ip), vehicle: water
  T/C: 110 % of control

Reference: PubChem BioAssay AID328 (DTP/NCI, 2004)
